Experimental findings from ChEMBL document CHEMBL5136967, “Identification of molecular glues of the SLP76/14-3-3 protein-protein interaction” (RSC Med Chem, 2021) are described below.

The test is filed under the species Homo sapiens. Kind of test: Binding affinity to His6-tagged/Tb-labelled 14-3-3gamma (unknown origin)/His6-SUMO-tagged/AF647-labelled SLP76 (unknown origin) expressed in Noco21 (DE3) cells assessed as fold change in KD improvement by HTRF assay. For orientation: Time-resolved FRET reads energy transfer from a long-lived donor to a nearby acceptor.

As for `S=c1[nH]nc(Cn2nnc3ccccc32)o1`, the fold change (FC) amounted to 1.1. Regarding `COc1ccc(C(=O)N2C[C@@H]3CN(CCO3)C(=O)[C@@H]3C[C@@H](CN3Cc3ccc4c(c3)OCO4)NC(=O)C[C@@H]3O[C@H](C2)[C@@H](O)[C@H]3O)cc1`, the fold change (FC) was found to be 3.4. As to `O=C(Cn1nc(C(F)(F)F)c2c1CCCC2)Nc1ccc(Cl)c(Cl)c1`, the fold change (FC) amounted to 14.6. In the case of `CC(C)CNC(=O)c1ccc2c(c1)nc1n2CCN(C(C)C)C1=O`, the fold change (FC) came to 5.2.

On to `O=C1OC[C@@H]2CCN(Cc3ccccc3)Cc3ccccc3N12`, for which the fold change (FC) was found to be 3.3.

For `c1cc(-c2nnc3scnn23)ccn1`, the fold change (FC) amounted to 4.4.

`CC1=CCC2COC(C[N+]3(C)CCCCC3)C1C2` (configuration not stated): the fold change (FC) was determined as 4.7. Consider `Fc1ccc(OCc2nn3c(Cn4cnc5ccccc54)nnc3s2)cc1`, for which the fold change (FC) was found to be 3.5. As for `CC(C)N1CC[C@H]2COC(=O)N2c2cc(F)ccc2C1`, the fold change (FC) was 4.1.

For `O=C(c1ccc(Cl)cc1)n1c(Cn2nnc(-c3cccc4ccccc34)n2)n[nH]c1=S`, the fold change (FC) is 1.8. Then `CC1=Nn2c(nnc2-c2ccoc2C)SC1`, with 1.4; and `COc1ccccc1-c1nnc2scnn12`, with 11.
